From ChEMBL document CHEMBL4002576, “Tetrahydropyranodiquinolin-8-amines as new, non hepatotoxic, antioxidant, and acetylcholinesterase inhibitors for Alzheimer's disease therapy” (Eur J Med Chem, 2017) come the findings set out here.

Active and inactive are the calls of the source. The rule behind the calls is not given here.

Series [1] has as its target T1, Acetylcholinesterase (Homo sapiens, UniProt P22303). Kind of series: Inhibition of recombinant human AChE expressed in HEK293 cells using acetylthiocholine iodide as substrate pretreated for 5 mins followed by substrate addition measured after 5 mins by spectrophotometry based Ellman method. A general note: DTNB colorimetry detects thiols as they appear.
In another series the target is Cholinesterase (Equus caballus, UniProt P81908). In words: Inhibition of horse serum BuChE using butyrylthiocholine as substrate pretreated for 10 mins followed by substrate addition measured after 15 mins by spectrophotometry based Ellman method.
The target in series [2] is Acetylcholinesterase (Electrophorus electricus, UniProt O42275).
Description: Inhibition of Electrophorus electricus AChE using acetylthiocholine iodide as substrate pretreated for 10 mins followed by substrate addition measured after 15 mins by spectrophotometry based Ellman method
The target of series [3] is T1, Acetylcholinesterase. In words: Non-competitive inhibition of recombinant human AChE expressed in HEK293 cells using varying levels of acetylthiocholine iodide as substrate pretreated for 5 mins followed by substrate addition measured after 5 mins by Lineweaver-burk plot analysis.
Series [4] in a line: Metal chelating activity assessed as compound-Cu2+ complex formation at 10 uM in presence of CuSO4 after 20 hrs by UV-visible spectrophotometric analysis. Format: functional.
Series [5] in a line: Metal chelating activity assessed as compound-Cu2+ complex formation at 10 uM in presence of CuSO4 after 60 mins by UV-visible spectrophotometric analysis. Format: functional.
A short description of series [6]: Metal chelating activity assessed as compound-Fe2+ complex formation at 10 uM in presence of FeSO4 after 60 mins by UV-visible spectrophotometric analysis. Format: functional.
A short description of series [7]: Metal chelating activity assessed as compound-Fe2+ complex formation at 10 uM in presence of FeSO4 after 20 hrs by UV-visible spectrophotometric analysis. Format: functional.
A short description of another series: physchem. As to conditions: PAMPA, pH 7.4.
Series [8] can be described thus: in vitro. The note with it: human, primary hepatocytes.
Description: Cytotoxicity against human primary hepatocytes assessed as cell viability at 0.1 uM measured after 2 hrs by trypan blue assay relative to control
A short description of series [9]: in vitro. As to conditions: human, primary hepatocytes. This is another data set of the same source.
Description: Cytotoxicity against human primary hepatocytes assessed as cell viability at 1 uM measured after 2 hrs by trypan blue assay relative to control
The nature of series [10]: in vitro. As to conditions: human, primary hepatocytes. This is another data set of the same source.
Description: Cytotoxicity against human primary hepatocytes assessed as cell viability at 3 uM measured after 2 hrs by trypan blue assay relative to control
Series [11] in a line: in vitro. As to conditions: human, primary hepatocytes. The source holds these as a separate data set.
Description: Cytotoxicity against human primary hepatocytes assessed as cell viability at 10 uM measured after 2 hrs by trypan blue assay relative to control
Series [12] in a line: in vitro. The note with it: human, primary hepatocytes. This is another data set of the same source.
Description: Cytotoxicity against human primary hepatocytes assessed as cell viability at 30 uM measured after 2 hrs by trypan blue assay relative to control
Series [13] in a line: in vitro. The note with it: human, primary hepatocytes. The source holds these as a separate data set.
Description: Cytotoxicity against human primary hepatocytes assessed as cell viability at 100 uM measured after 2 hrs by trypan blue assay relative to control

As usually defined, the IC50 is the concentration that gives 50% inhibition. For orientation: Ki means a measure of affinity in units of concentration, obtained from inhibition or displacement. Usually Papp stands for a coefficient for how fast a substance crosses the barrier. As a reminder, the viability is a read-out of living cells in per cent, often relative to untreated cells. High values mean less harm to the cells, low ones more harm to the cells.

T1 sequence (P22303 whole entry): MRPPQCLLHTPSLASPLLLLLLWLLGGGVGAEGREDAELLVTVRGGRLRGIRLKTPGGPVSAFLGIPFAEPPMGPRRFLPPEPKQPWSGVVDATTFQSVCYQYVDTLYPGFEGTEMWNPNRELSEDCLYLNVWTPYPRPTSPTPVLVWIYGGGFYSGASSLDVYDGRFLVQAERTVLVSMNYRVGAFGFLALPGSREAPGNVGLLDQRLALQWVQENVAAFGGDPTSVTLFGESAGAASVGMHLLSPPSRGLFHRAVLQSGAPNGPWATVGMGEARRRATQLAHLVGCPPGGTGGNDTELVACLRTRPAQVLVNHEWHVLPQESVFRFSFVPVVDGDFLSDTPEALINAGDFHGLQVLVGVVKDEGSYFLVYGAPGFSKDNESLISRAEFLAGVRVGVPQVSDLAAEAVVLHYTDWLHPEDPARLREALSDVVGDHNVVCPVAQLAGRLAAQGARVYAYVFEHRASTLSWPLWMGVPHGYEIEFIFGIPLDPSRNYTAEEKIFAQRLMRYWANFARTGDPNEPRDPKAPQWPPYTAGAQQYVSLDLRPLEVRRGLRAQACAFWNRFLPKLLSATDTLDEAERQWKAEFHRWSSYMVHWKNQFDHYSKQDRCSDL
Sequence of Cholinesterase (P81908 whole entry): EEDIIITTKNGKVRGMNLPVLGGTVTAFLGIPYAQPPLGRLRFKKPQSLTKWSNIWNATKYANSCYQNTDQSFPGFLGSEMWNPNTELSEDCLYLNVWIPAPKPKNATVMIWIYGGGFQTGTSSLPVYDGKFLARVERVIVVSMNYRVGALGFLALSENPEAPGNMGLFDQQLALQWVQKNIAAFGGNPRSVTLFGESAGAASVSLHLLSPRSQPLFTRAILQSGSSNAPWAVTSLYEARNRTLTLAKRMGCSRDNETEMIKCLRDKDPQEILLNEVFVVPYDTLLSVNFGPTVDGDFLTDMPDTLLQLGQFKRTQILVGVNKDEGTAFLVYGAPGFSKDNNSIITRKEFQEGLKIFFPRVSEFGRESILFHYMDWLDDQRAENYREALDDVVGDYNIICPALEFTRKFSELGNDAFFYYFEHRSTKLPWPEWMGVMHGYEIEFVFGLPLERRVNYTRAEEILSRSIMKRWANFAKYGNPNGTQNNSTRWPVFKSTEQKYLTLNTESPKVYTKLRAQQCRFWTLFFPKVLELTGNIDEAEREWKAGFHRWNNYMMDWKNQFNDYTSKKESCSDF
Sequence of Acetylcholinesterase (Electrophorus electricus, UniProt O42275) (O42275 whole entry): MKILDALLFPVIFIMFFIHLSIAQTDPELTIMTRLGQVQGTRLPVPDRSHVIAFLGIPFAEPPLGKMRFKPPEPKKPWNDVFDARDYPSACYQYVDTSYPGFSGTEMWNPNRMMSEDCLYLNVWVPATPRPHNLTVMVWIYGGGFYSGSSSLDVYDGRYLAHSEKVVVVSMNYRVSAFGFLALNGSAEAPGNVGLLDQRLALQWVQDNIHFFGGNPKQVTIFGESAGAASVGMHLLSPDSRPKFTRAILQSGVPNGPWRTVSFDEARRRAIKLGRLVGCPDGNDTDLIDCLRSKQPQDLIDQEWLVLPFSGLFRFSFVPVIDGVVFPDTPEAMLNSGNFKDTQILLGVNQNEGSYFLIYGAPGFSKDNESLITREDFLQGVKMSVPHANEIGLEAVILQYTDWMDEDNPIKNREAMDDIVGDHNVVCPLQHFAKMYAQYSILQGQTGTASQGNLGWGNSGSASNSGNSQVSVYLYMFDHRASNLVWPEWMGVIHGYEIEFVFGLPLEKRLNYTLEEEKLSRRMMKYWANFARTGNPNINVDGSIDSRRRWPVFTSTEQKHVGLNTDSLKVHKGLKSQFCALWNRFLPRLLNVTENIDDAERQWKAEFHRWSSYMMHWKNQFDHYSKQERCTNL
Description for physchem: Permeability of the compound at 100 uM at pH 7.4 measured after 6 hrs by PAMPA

As for `Nc1c2c(nc3c1C(c1cccnc1Br)c1ccc4cccnc4c1O3)CCCC2` (stereo not drawn), the IC50 entry at Acetylcholinesterase [1] (hek293) is “Not Active”; at Cholinesterase (read-out: IC50) it was 2860 nM; at Acetylcholinesterase [2], 190 nM.
As to `Nc1c2c(nc3c1C(c1c(Cl)cccc1Cl)c1ccc4cccnc4c1O3)CCCC2` (stereo not drawn), the IC50 entry at Cholinesterase was “Not Active”; on Acetylcholinesterase [2], 100 nM.
With `COc1cccc(C2c3ccc4cccnc4c3Oc3nc4c(c(N)c32)CCCC4)c1` (stereo not drawn), the IC50 on Acetylcholinesterase [1] (read-out: IC50) worked out at 750 nM; on Cholinesterase (read-out: IC50), 1300 nM; on Acetylcholinesterase [2] it was 40 nM. Further, the inhibitory constant (Ki) at Acetylcholinesterase [3] is 870 nM. In addition, the outcome in series [4], in [5], in series [6] and in series [7] was inactive. The compound further showed an apparent permeability (Papp) at 6 h, 100 µM in “physchem” of 5.41 ×10⁻⁶ cm/s. Moreover, in the series “in vitro [8]”, the viability at 2 h, 0.1 µM came to 89%. This compound also displayed a viability at 2 h, 1 µM in the series “in vitro [9]” of 84%. Also, in “in vitro [10]”, the viability at 2 h, 3 µM came out at 83%. Further, the viability at 2 h, 10 µM in the series “in vitro [11]” came out at 89%. This compound also displayed a viability at 2 h, 30 µM in “in vitro [12]” of 99%. The viability at 2 h, 100 µM in the series “in vitro [13]” was found to be 89%.
In the case of `COc1ccccc1C1c2ccc3cccnc3c2Oc2nc3c(c(N)c21)CCCC3` (stereo not drawn), the half-inhibitory concentration (IC50) on Cholinesterase (read-out: IC50) is 1510 nM; against Acetylcholinesterase [2], 80 nM.
`Nc1c2c(nc3c1C(c1ccc([N+](=O)[O-])cc1)c1ccc4cccnc4c1O3)CCCC2` (stereo not drawn): the IC50 result at Cholinesterase is “Not Active”; against Acetylcholinesterase [2], 240 nM.
For `Nc1c2c(nc3c1C(c1ccccc1)c1ccc4cccnc4c1O3)CCCC2` (stereo not drawn), the concentration for half-maximal inhibition (IC50) stood at 1730 nM on Acetylcholinesterase [1] (read-out: IC50), 1110 nM on Cholinesterase (read-out: IC50) and 60 nM against Acetylcholinesterase [2].
The like results for `Cc1ccc(C2c3ccc4cccnc4c3Oc3nc4c(c(N)c32)CCCC4)cc1` (stereo not drawn) were, in that order, 2850 nM, 530 nM and 40 nM.
As for `Nc1c2c(nc3c1C(c1cccc(F)c1)c1ccc4cccnc4c1O3)CCCC2` (stereo not drawn), the figures for the IC50 at Acetylcholinesterase [1] (read-out: IC50), at Cholinesterase and against Acetylcholinesterase [2] were 2200 nM, “Not Active” and 90 nM, respectively.
For `COc1ccc(C2c3ccc4cccnc4c3Oc3nc4c(c(N)c32)CCCC4)cc1` (stereo not drawn), the figures for the concentration for half-maximal inhibition (IC50) at Acetylcholinesterase [1] (read-out: IC50), on Cholinesterase (read-out: IC50) and on Acetylcholinesterase [2] were 1510 nM, 1300 nM and 40 nM, respectively.
For `Nc1c2c(nc3c1C(c1ccncc1)c1ccc4cccnc4c1O3)CCCC2` (stereo not drawn), the IC50 entry is “Not Active” at Acetylcholinesterase [1] (hek293), “Not Active” at Cholinesterase and 470 nM against Acetylcholinesterase [2].
For `Nc1c2c(nc3c1C(c1ccccc1F)c1ccc4cccnc4c1O3)CCCC2` (stereo not drawn), the half-inhibitory concentration (IC50) at Cholinesterase (read-out: IC50) turned out to be 630 nM; on Acetylcholinesterase [2] it was 110 nM.
With `Nc1c2c(nc3c1C(c1ccccc1Br)c1ccc4cccnc4c1O3)CCCC2` (stereo not drawn), the half-inhibitory concentration (IC50) was determined as 210 nM at Cholinesterase (read-out: IC50) and 140 nM at Acetylcholinesterase [2].
